Test results published in publication PMC6201930 (PLoS ONE, 2018).
“And” between values parts separate entries of the source, which are not always exact repeats. Equal entries are not always repeated. Where two headings read alike, the source gives them in different places.

Experiments:
[1] = Cytotoxicity in myoblasts; settings: mouse, primary mouse myoblasts
Excerpt: (§1) When considering compounds for potential readthrough therapy it is important to monitor cellular and animal safety. In order to determine the most promising compounds to further evaluate in in vivo safety, we measured cytotoxicity in two different cell types. We used activated human peripheral blood mononuclear cells (PBMCs) (Table 2 and Fig 2D and 2E). PBMCs are a primary cell that when activated with phytohaemagglutinin (PHA) expand quickly and are commonly used as an in vitro surrogate for rapidly growing cells in the human body to evaluate cytotoxicity. Prior to advancing compounds into human studies, safety evaluation in rodents is performed. As an in vitro surrogate for rodent toxicity, we used primary mouse myoblasts.

[2] = system: fLuc mRNA harboring a UGA nonsense mutation at codon 190 (fLuc-190-NS); format: biochemical, rabbit
Excerpt: ThefLuc-190-NS assay is an in vitro rabbit reticulocyte lysate translation of an fLuc mRNA harboring a UGA nonsense mutation at codon 190 (fLuc-190-NS). It is believed that positively charged aminoglycosides are poorly taken up by cells, and we used this cell-free readthrough assay to eliminate the potential variable of cell uptake when measuring readthrough potency. […] Readthrough protein was detected using a HA-HIS MSD immunoassay described previously.
This cell-free translation assay used synthetic LUC mRNAs harboring an EMCV IRES and LUC codon 190-UGA premature stop codon prepared using the MegaScript in vitro transcription kit (Ambion). Translation reactions were done with the Rabbit Reticulocyte Lysate System (Promega) with 100 ng RNA and increasing concentrations of aminoglycosides. The amount of luminescence produced was determined after approximately 4 hours using a Viewlux CCD imager (Perkin-Elmer). Fold suppression over background was calculated as (aminoglycoside light units/PBS light units).

[3] = Neuromast toxicity assay (DASPEI staining); settings: zebrafish, zebrafish embryos 5 dpf, neuromasts (hair cells), other: embryos exposed to the drug in 24-well plates
Experimental: All neuromast cytotoxicity assays were done at Biobide–BBD Biophenix SL (Gipuzkoa, Spain). […] Compounds were tested at 5 doses. After 24 hours of exposure embryos were incubated in DASPEI (2-(4-(dimethylamino)styryl) -N-Ethylpyridinium Iodide) for neuromast staining. Images of each embryo were taken and neuromasts counted. A compound was classified as ototoxic when the number of neuromasts in the treated group was less than that in the untreated control group (One Way ANOVA, multiple comparisons vs. vehicle).

[4] = Cytotoxicity in stimulated PBMCs (CellTitre-Glo ATP); settings: human, Stimulated PBMC CC50, AVERAGE (S1 File)
Excerpt: as §1
(§2) Frozen human Peripheral Blood Mononuclear Cells (PBMCs) were obtained from […] (Alameda, CA, Cat# PB003F) from a single donor. […] Plates were incubated at 37°C with 5% CO2 for 4 hours prior to compound treatment. Compounds were serially diluted and added to the plates. Plates were incubated at 37°C, 5% CO2 incubator, for 72 hours prior to determinations of ATP levels. Cell viability was determined using a chemiluminescent assay to monitor adenosine triphosphate (ATP) levels in live cells (CellTitre-Glo; CTG; Promega, Cat#G7571). Methods were performed per the manufacturer’s instructions.

[5] = system: activated human peripheral blood mononuclear cells (PBMCs); test: as above; settings: read-out: Stimulated PBMC CC50; individual determinations (S1 File)
Excerpt: as §1, §2

[6] = system: tGFP-CFTR542X-HA-HIS construct (codon 542 UGA) in 293H cells; test: tGFP-542X readthrough assay (HA-HIS MSD immunoassay); format: cell-based, human
[7] = system: p53 R213* UGA premature termination codon in HDQ-P1 mammary carcinoma cells; test: HDQ-p53UGA213 readthrough assay (full-length p53, MSD immunoassay); format: cell-based, human; settings: for HDQ-p53UGA213 (Maxfold): maximum readthrough activity above background
Experimental: We utilized HDQ-P1 mammary carcinoma cells, which are homozygous for R213*, a UGA premature termination codon in the gene for the tumor suppressor protein p53 [30]. […] Western blot hybridization and Meso Scale Discovery (MSD) immunoassay detection of p53 were done as previously described. […] Cells (45K per well) were grown in 96-well plates and treated with compounds for 24 hours. […] Cells were lysed with 60 μl per well of lysis buffer (20 mM Tris-HCL, pH 7.5, 1 mM EGTA, 1 mM EDTA,150 mM Nacl, 0.5% Triton X100) for one hour at room temperature and 30 μl of lysate per well were transferred to the coated plate and incubated overnight at 4 °C. […] Plates were then washed three times with PBS-T and 30 μl of 0.25 μ/ml goat anti-rabbit IgG-Sulfo-tag antibody (MSD) in TBS-C was added and incubated for 1 hour at room temperature. Plates were then washed three times with PBS-T and 150 μl read buffer (MSD) was added. Plates were read immediately in a SECTOR S 600 (MSD).

primary mouse myoblasts = test: Cytotoxicity in myoblasts; settings: read-out: Myoblast CC50; individual determinations (S1 File)
Excerpt: as §1

[8] = Myoblast CC50, AVERAGE (S1 File)
[9] = AVERAGE (S1 File), unit not given for EC5X
[10] = individual experiments (S1 File)
[11] = individual experiments (S1 File), unit not printed for EC5X (EC2X of the sheet in uM)
[12] = Neuromast CC50, AVERAGE (S1 File)
[13] = Neuromast CC50, individual determinations (S1 File)
[14] = 293H cells, 24 hours, average ± SD
[15] = maximum readthrough above background, average ± SD
[16] = concentration required to double the level of full-length p53 protein, average ± SD, at least three experiments, highest concentration 300 μM
[17] = individual experiments (S1 File), max fold

SMILES | CC50 [1, 8] [mM] | fLuc-190-NS EC2X ([2]; AVERAGE (S1 File)) [µM] | fLuc-190-NS MaxFold ([2]; AVERAGE (S1 File)) | fLuc-190-NS EC5X [2, 9] | fLuc-190-NS EC2X ([2]; cell-free, average ± SD) [µM] | fLuc-190-NS MaxFold ([2]; cell-free, average ± SD) [fold] | fLuc-190-NS EC2X [2, 10] | fLuc-190-NS MaxFold [2, 10] | fLuc-190-NS EC5X [2, 11] | CC50 at 24 h [3, 12] [mM] | CC50 at 24 h [3, 13] [mM] | CC50 at 72 h [4] [mM] | CC50 [5] | tGFP-542X EC2X [6, 14] [µM] | tGFP-542X EC2X ([6]; AVERAGE (S1 File)) [µM] | tGFP-542X Maxfold ([6]; AVERAGE (S1 File)) | tGFP-542X EC2X [6, 10] | tGFP-542X Maxfold [6, 10] | tGFP-542X EC5X [6, 11] | tGFP-542X Maxfold [6, 15] [fold] | also measured
CN[C@@H]1[C@@H](O)[C@@H](O[C@@H]2[C@@H](O)[C@H](O[C@H]3O[C@H](CO)[C@@H](O)[C@H](O)[C@H]3N)[C@@H](N)C[C@H]2N)OC[C@H]1O [Gentamicin A, gentamicin A] | 6.21 | 0.45 | 6.7 | 2.0 | 0.45 ± 0.015 | 6.7 ± 0.4 | 0.44 µM and 0.47 µM and 0.45 µM | 6.38 and 6.62 and 7.20 | 1.95 and 2.14 | 0.017 | 0.017 | 3.62 | > 1.25 mM and 3.62 mM | 385 ± 123 | 385.2 | 3.8 | 490.42 µM and 415.81 µM and 249.27 µM | 3.32 and 4.14 and 3.99 | >1000 | 4 ± 0.4 | CC50 ([1]; Myoblast CC50, individual determinations (S1 File)): 6.21 mM; HDQ-p53UGA213 EC2X ([7]; AVERAGE (S1 File)): 585.5 µM; HDQ-p53UGA213 max ([7]; AVERAGE (S1 File)): 2.7; HDQ-p53UGA213 EC2X [7, 16]: 586 ± 100 µM; HDQ-p53UGA213 EC2X [7, 10]: 658.30 µM and 626.86 µM and 471.32 µM; HDQ-p53UGA213 max [7, 17]: 2.50 and 3.24 and 2.45; HDQ-p53UGA213 (Maxfold) ([7]; average ± SD): 3 ± 0.4 fold
CN[C@@H]1[C@@H](O)[C@@H](O[C@@H]2[C@@H](O)[C@H](O[C@H]3O[C@H]([C@@H](C)N)CC[C@H]3N)[C@@H](N)C[C@H]2N)OC[C@]1(C)O [Gentamicin C2, gentamicin C2] | 3.78 | 1.1 | 97.2 | 1.9 | 1.086 ± 0.763 | 97 ± 12 | 1.97 µM and 0.62 µM and 0.67 µM | 84.91 and 97.65 and 109.15 | 2.76 and 1.44 and 1.41 | 0.0028 | 0.0028 | 2.18 | 3.8 mM and 0.566 mM | 266 ± 44 | 265.9 | 8.9 | 225 µM and 260 µM and 312.48 µM | 11 and 9 and 7.29 | 566 and 647 and 748.53 | 9 ± 2 | CC50 (primary mouse myoblasts): 6.1 mM and 4.31 mM and 0.911 mM; tGFP-542X EC5X [6, 9]: 653.9; HDQ-p53UGA213 EC2X ([7]; AVERAGE (S1 File)): 141.9 µM; HDQ-p53UGA213 max ([7]; AVERAGE (S1 File)): 5.8; HDQ-p53UGA213 EC2X [7, 16]: 142 ± 86 µM; HDQ-p53UGA213 EC2X ([7]; concentration required to double the level of full-length p53 protein, average ± SD, at least three experiments, highest concentration 300 μM, listed as C2): triple digit; HDQ-p53UGA213 EC2X [7, 10]: 34.99 µM and 16.61 µM and 97.73 µM and 112.3 µM and 133.88 µM and 91.16 µM and 121.67 µM and 256.3 µM and 179.64 µM and 255.57 µM and 260.59 µM; HDQ-p53UGA213 max [7, 17]: 4.1 and 15.8 and 4 and 3.2 and 5.2 and 3.9 and 2.4 and 15.7 and 3.5 and 3; HDQ-p53UGA213 (Maxfold) ([7]; average ± SD): 6 ± 5 fold
CN[C@@H]1[C@@H](O)[C@@H](O[C@@H]2[C@@H](O)[C@H](O[C@H]3OC(CN)=CC[C@H]3N)[C@@H](N)C[C@H]2N)OC[C@]1(C)O [Sisomycin] | – | 2.6 | 4.0 | – | 2.596 ± 0.428 | 4 ± 0.5 | 2.96 µM and 2.70 µM and 2.13 µM | 3.55 and 3.95 and 4.47 | >30 | – | – | – | – | >1000 | – | 1.3 | >1000 µM | 1.27 and 1.38 and 1.37 | >1000 | 1 ± 0.1 | –
